The target of one assay is CDK2/Cyclin E1 (Homo sapiens, UniProt P24941). Kind of assay: CDK2/Cyclin E1 Biochemical Assay (TR-FRET), 0.060 mM ATP. The note with it: 0.15 μM Rb (Ser780)-biotin substrate, pH7.0, 60 min preincubation, 120 min reaction, room temperature. Summed up:
(§1)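 TR-FRET readout: 665/620 nm ratio from Eu-cryptate anti-pRb(Ser780) antibody plus streptavidin-XL665, converted to % inhibition and fitted (4-parameter logistic) for IC50. Reactions used 0.15 μM biotinylated Rb (Ser780) substrate, compound 0–10 μM, 60 min enzyme–compound preincubation, then 120 min reaction at room temperature.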
(Time-resolved FRET reads energy transfer from a long-lived donor to a nearby acceptor.)

The target in the next assay is CDK1/Cyclin B1 (Homo sapiens, UniProt P06493). Kind of assay: CDK1/Cyclin B1 Biochemical Assay (TR-FRET), 0.015 mM ATP. The note with it: 0.15 μM Rb (Ser780)-biotin substrate, pH7.0, 60 min preincubation, 120 min reaction, room temperature. Summed up: as §1
Sequence of CDK1/Cyclin B1 (P06493 whole entry): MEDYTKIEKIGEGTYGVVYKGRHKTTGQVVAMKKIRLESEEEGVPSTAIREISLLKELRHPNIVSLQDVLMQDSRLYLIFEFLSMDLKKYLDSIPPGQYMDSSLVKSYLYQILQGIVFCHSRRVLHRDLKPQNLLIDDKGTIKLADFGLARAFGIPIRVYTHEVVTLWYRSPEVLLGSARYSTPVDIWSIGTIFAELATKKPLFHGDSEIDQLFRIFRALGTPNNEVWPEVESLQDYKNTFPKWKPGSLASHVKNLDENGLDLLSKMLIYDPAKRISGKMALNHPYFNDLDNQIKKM
Sequence of CDK1/Cyclin B1 (P14635 whole entry partner): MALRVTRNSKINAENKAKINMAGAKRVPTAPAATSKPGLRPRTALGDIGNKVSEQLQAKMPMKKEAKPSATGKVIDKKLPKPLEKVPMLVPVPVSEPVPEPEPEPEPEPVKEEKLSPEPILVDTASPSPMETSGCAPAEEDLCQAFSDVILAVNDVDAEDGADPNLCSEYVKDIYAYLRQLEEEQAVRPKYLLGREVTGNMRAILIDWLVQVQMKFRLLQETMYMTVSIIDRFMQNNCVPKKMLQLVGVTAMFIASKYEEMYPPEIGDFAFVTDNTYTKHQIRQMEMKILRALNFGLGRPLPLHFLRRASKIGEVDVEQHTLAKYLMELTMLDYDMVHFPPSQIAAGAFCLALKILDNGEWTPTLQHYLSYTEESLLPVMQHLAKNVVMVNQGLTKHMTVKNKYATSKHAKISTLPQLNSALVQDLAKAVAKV

For `CC(C)NC(=O)O[C@H]1CC[C@@H](c2cc(Nc3ccc4c(c3)CS(=O)(=O)N4C3COC3)n[nH]2)C1` (relative stereo) [Example 209, cis-3-(3-((1-(oxetan-3-yl)-2,2-dioxido-1,3-dihydrobenzo[c]isothiazol-5-yl)amino)-1H-pyrazol-5-yl)cyclopentyl isopropylcarbamate], the results for the IC50 on CDK2/Cyclin E1 and at CDK1/Cyclin B1 were 0.0054 µM and 0.037 µM, respectively.
The like results for `CC(C)NC(=O)O[C@H]1CC[C@@H](c2cc(Nc3ccc4c(c3)CS(=O)(=O)N4CC3COC3)n[nH]2)C1` (relative stereo) [Example 210, cis-3-(3-((1-(oxetan-3-ylmethyl)-2,2-dioxido-1,3-dihydrobenzo[c]isothiazol-5-yl)amino)-1H-pyrazol-5-yl)cyclopentyl isopropylcarbamate] were, in that order, 0.0021 µM and 0.04 µM.
Consider `CC(C)NC(=O)O[C@H]1CC[C@@H](c2cc(Nc3ccc4c(c3)CS(=O)(=O)N4CC3CCC3)n[nH]2)C1` (relative stereo) [Example 211, cis-3-(3-((1-(cyclobutylmethyl)-2,2-dioxido-1,3-dihydrobenzo[c]isothiazol-5-yl)amino)-1H-pyrazol-5-yl)cyclopentyl isopropylcarbamate], for which the 50% inhibitory concentration (IC50) against CDK2/Cyclin E1 came to 0.0084 µM; at CDK1/Cyclin B1, 0.197 µM.
In the case of `CC(C)NC(=O)O[C@H]1CC[C@@H](c2cc(Nc3ccc4c(c3)CS(=O)(=O)N4CCN3CCOCC3)n[nH]2)C1` (relative stereo) [Example 212, cis-3-(3-((1-(2-morpholinoethyl)-2,2-dioxido-1,3-dihydrobenzo[c]isothiazol-5-yl)amino)-1H-pyrazol-5-yl)cyclopentyl isopropylcarbamate], the IC50 turned out to be 0.0035 µM at CDK2/Cyclin E1 and 0.06 µM against CDK1/Cyclin B1.
For the molecule `CC(C)NC(=O)O[C@H]1CC[C@@H](c2cc(Nc3ccc4c(c3)CS(=O)(=O)N4CC3CN(C)C3)n[nH]2)C1` (relative stereo) [Example 213, cis-3-(3-((1-((1-methylazetidin-3-yl)methyl)-2,2-dioxido-1,3-dihydrobenzo[c]isothiazol-5-yl)amino)-1H-pyrazol-5-yl)cyclopentyl isopropylcarbamate], the IC50 came to 0.0027 µM at CDK2/Cyclin E1 and 0.03 µM against CDK1/Cyclin B1.
In the case of `CC(=O)N1CC(CN2c3ccc(Nc4cc([C@@H]5CC[C@H](OC(=O)NC(C)C)C5)[nH]n4)cc3CS2(=O)=O)C1` (relative stereo) [Example 214, cis-3-(3-((1-((1-acetylazetidin-3-yl)methyl)-2,2-dioxido-1,3-dihydrobenzo[c]isothiazol-5-yl)amino)-1H-pyrazol-5-yl)cyclopentyl isopropylcarbamate], the values for the IC50 at CDK2/Cyclin E1 and at CDK1/Cyclin B1 were 0.0017 µM and 0.044 µM, respectively.
For `CC(C)NC(=O)O[C@H]1CC[C@@H](c2cc(Nc3ccc4c(c3)CS(=O)(=O)N4CCCO)n[nH]2)C1` (relative stereo) [Example 215, cis-3-(3-((1-(3-hydroxypropyl)-2,2-dioxido-1,3-dihydrobenzo[c]isothiazol-5-yl)amino)-1H-pyrazol-5-yl)cyclopentyl isopropylcarbamate] the same measures were 0.0031 µM and 0.03 µM.
For `CC(C)NC(=O)O[C@H]1CC[C@@H](c2cc(Nc3ccc4c(c3)CS(=O)(=O)N4CC(C)(C)O)n[nH]2)C1` (relative stereo) [Example 216, cis-3-(3-((1-(2-hydroxy-2-methylpropyl)-2,2-dioxido-1,3-dihydrobenzo[c]isothiazol-5-yl)amino)-1H-pyrazol-5-yl)cyclopentyl isopropylcarbamate], the values for the IC50 against CDK2/Cyclin E1 and against CDK1/Cyclin B1 were 0.0078 µM and 0.054 µM, respectively.
In the case of `CC(C)NC(=O)O[C@H]1CC[C@@H](c2cc(Nc3ccc4c(c3)CS(=O)(=O)N4CCC3CCOCC3)n[nH]2)C1` (relative stereo) [Example 217, cis-3-(3-((2,2-dioxido-1-(2-(tetrahydro-2H-pyran-4-yl)ethyl)-1,3-dihydrobenzo[c]isothiazol-5-yl)amino)-1H-pyrazol-5-yl)cyclopentyl isopropylcarbamate], the IC50 on CDK2/Cyclin E1 was found to be 0.0088 µM; at CDK1/Cyclin B1, 0.126 µM.
Regarding `CC(C)NC(=O)O[C@H]1CC[C@@H](c2cc(Nc3ccc4c(c3)CS(=O)(=O)N4C(C)C3CCOC3)n[nH]2)C1` (relative stereo) [Example 218, cis-3-(3-((2,2-dioxido-1-(1-(tetrahydrofuran-3-yl)ethyl)-1,3-dihydrobenzo[c]isothiazol-5-yl)amino)-1H-pyrazol-5-yl)cyclopentyl isopropylcarbamate], the IC50 on CDK2/Cyclin E1 stood at 0.112 µM; against CDK1/Cyclin B1, 0.999 µM.
The like results for `CCCNC(=O)O[C@H]1CC[C@@H](c2cc(Nc3ccc4c(c3)CS(=O)(=O)N4C)n[nH]2)C1` (relative stereo) [Example 221, cis-3-(3-((1-methyl-2,2-dioxido-1,3-dihydrobenzo[c]isothiazol-5-yl)amino)-1H-pyrazol-5-yl)cyclopentyl propylcarbamate] were, in that order, 0.0086 µM and 0.049 µM.
With `CC[C@H](C)NC(=O)O[C@H]1CC[C@@H](c2cc(Nc3ccc4c(c3)CS(=O)(=O)N4C)n[nH]2)C1` (relative stereo) [Example 222, cis-3-(3-((1-methyl-2,2-dioxido-1,3-dihydrobenzo[c]isothiazol-5-yl)amino)-1H-pyrazol-5-yl)cyclopentyl((S)-sec-butyl)carbamate], the IC50 against CDK2/Cyclin E1 turned out to be 0.005 µM; at CDK1/Cyclin B1, 0.048 µM.
For `CN1c2ccc(Nc3cc([C@@H]4CC[C@H](OC(=O)NC5(C)CC5)C4)[nH]n3)cc2CS1(=O)=O` (relative stereo) [Example 223, cis-3-(3-((1-methyl-2,2-dioxido-1,3-dihydrobenzo[c]isothiazol-5-yl)amino)-1H-pyrazol-5-yl)cyclopentyl(1-methylcyclopropyl)carbamate] the same measures were 0.0055 µM and 0.035 µM.
For `CN1c2ccc(Nc3cc([C@@H]4CC[C@H](OC(=O)NC5CC6(CCC6)C5)C4)[nH]n3)cc2CS1(=O)=O` (relative stereo) [Example 224, cis-3-(3-((1-methyl-2,2-dioxido-1,3-dihydrobenzo[c]isothiazol-5-yl)amino)-1H-pyrazol-5-yl)cyclopentyl spiro[3.3]heptan-2-ylcarbamate] the same measures were 0.029 µM and 2.58 µM.
For `CNC(=O)O[C@H]1CC[C@@H](c2cc(Nc3ccc4c(c3)CS(=O)(=O)N4C)n[nH]2)C1` (relative stereo) [Example 225, cis-3-(3-((1-methyl-2,2-dioxido-1,3-dihydrobenzo[c]isothiazol-5-yl)amino)-1H-pyrazol-5-yl)cyclopentyl methylcarbamate], the IC50 on CDK2/Cyclin E1 is 0.087 µM; at CDK1/Cyclin B1, 0.789 µM.
For `COCC(C)NC(=O)O[C@H]1CC[C@@H](c2cc(Nc3ccc4c(c3)CS(=O)(=O)N4C)n[nH]2)C1` (relative stereo) [Example 226, cis-3-(3-((1-methyl-2,2-dioxido-1,3-dihydrobenzo[c]isothiazol-5-yl)amino)-1H-pyrazol-5-yl)cyclopentyl(1-methoxypropan-2-yl)carbamate] the same measures were 0.002 µM and 0.077 µM.
For `COCC1(NC(=O)O[C@H]2CC[C@@H](c3cc(Nc4ccc5c(c4)CS(=O)(=O)N5C)n[nH]3)C2)CC1` (relative stereo) [Example 228, cis-3-(3-((1-methyl-2,2-dioxido-1,3-dihydrobenzo[c]isothiazol-5-yl)amino)-1H-pyrazol-5-yl)cyclopentyl(1-(methoxymethyl)cyclopropyl)carbamate] the same measures were 0.0094 µM and 0.123 µM.

Usually IC50 stands for the concentration that gives 50% inhibition. Read a low IC50 as greater potency in that assay.
